Results: ChEMBL document CHEMBL1133407, “Ring constrained analogues of beta-alanine-containing GPIIb/IIIa receptor antagonists” (Bioorg Med Chem Lett, 2000)

Columns and labels:
[1] = molecular target: T1, Integrin alpha-IIb/beta-3 (Homo sapiens, UniProt P05106+P08514); assay: Relative binding to unactivated/activated platelets
[2] = molecular target: T1, Integrin alpha-IIb/beta-3; assay: Inhibition of Platelet glycoprotein IIb/Platelet glycoprotein IIIa binding in unactivated human platelets
Target sequence in this assay (P05106 27-788 limits assumed): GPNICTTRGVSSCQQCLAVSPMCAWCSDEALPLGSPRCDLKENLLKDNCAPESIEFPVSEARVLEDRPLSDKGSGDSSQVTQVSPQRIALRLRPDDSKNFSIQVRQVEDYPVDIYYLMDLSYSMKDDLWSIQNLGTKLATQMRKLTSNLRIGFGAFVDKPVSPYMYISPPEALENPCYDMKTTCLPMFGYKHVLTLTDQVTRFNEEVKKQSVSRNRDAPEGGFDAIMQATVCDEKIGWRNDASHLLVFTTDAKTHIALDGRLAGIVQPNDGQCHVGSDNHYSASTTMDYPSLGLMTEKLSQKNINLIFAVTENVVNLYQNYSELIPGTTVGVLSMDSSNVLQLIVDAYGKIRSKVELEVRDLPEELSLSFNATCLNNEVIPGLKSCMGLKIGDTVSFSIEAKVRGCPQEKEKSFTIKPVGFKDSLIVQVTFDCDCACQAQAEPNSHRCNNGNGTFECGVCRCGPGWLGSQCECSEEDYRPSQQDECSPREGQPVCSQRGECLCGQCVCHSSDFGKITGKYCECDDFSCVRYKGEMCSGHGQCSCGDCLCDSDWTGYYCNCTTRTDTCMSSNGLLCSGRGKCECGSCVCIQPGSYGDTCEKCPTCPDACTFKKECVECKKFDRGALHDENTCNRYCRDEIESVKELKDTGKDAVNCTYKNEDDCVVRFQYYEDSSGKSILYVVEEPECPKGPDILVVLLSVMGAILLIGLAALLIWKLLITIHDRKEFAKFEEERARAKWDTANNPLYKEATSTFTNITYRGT
Target sequence in this assay (P08514 32-887 limits assumed): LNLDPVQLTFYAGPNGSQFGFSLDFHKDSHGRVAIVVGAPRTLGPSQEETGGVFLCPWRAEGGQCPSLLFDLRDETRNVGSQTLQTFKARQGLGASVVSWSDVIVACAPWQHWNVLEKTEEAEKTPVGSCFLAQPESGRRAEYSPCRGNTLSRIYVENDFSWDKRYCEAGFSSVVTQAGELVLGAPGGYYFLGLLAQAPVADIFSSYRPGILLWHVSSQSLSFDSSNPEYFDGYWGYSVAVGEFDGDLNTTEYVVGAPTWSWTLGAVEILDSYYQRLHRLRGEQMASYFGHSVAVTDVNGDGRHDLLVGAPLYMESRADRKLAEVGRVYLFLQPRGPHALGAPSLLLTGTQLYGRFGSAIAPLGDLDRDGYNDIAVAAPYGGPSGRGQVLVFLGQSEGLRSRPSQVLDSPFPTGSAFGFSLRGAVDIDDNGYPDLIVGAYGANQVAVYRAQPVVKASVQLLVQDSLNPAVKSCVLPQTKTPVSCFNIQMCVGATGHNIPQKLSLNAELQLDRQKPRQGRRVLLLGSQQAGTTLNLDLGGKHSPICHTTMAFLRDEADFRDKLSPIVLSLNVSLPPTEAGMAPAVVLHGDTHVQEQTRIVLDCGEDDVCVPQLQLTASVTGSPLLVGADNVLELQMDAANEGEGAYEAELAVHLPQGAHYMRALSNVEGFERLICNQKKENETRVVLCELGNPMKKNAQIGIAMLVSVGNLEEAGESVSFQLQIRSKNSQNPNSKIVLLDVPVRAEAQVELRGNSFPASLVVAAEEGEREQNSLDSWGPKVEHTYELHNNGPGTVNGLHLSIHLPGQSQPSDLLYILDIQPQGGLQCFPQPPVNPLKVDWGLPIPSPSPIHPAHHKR
Target sequence in this assay (P08514 891-1039 limits assumed): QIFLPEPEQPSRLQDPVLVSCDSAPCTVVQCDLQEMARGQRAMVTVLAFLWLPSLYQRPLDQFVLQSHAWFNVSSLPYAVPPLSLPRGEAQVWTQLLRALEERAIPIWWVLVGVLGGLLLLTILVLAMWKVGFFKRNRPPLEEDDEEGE

[3] = molecular target: T1, Integrin alpha-IIb/beta-3; assay: Inhibition of GPIIb/IIIa binding in activated human platelets; assay type: functional
Target sequence in this assay (P05106 27-788 limits assumed): as the sequence (P05106 27-788 limits assumed) above
Target sequence in this assay (P08514 32-887 limits assumed): as the sequence (P08514 32-887 limits assumed) above
Target sequence in this assay (P08514 891-1039 limits assumed): as the sequence (P08514 891-1039 limits assumed) above

Structure (SMILES)	Ratio [1]	IC50 [2] [nM]	IC50 [3] [nM]
N=C(N)c1ccc(C2=NOC(CC(=O)N3CCCCC3CC(=O)O)C2)cc1 (single isomer, unassigned; isomer B) [listing 1 of 2 here]	19	–	–
N=C(N)c1ccc(C2=NOC(CC(=O)NCCC(=O)O)C2)cc1 (stereo not given)	28	112	4
N=C(N)c1ccc(C2=NOC(CC(=O)N3CCCCC3CC(=O)O)C2)cc1 (single isomer, unassigned; isomer C) [listing 1 of 2 here]	32	–	–
N=C(N)c1ccc(C2=NOC(CC(=O)N3CCCCC3CC(=O)O)C2)cc1 (single isomer, unassigned; isomer B) [listing 2 of 2 here]	–	5800	302
N=C(N)c1ccc(C2=NOC(CC(=O)N3CCCCC3CC(=O)O)C2)cc1 (single isomer, unassigned; isomer D)	–	> 5000	–
N=C(N)c1ccc(C2=NOC(CC(=O)N3CCCCC3CC(=O)O)C2)cc1 (single isomer, unassigned; isomer C) [listing 2 of 2 here]	–	64	2
